Values joined by “and” are separate entries in the source; they are usually repeats but may differ in a detail not shown here. Equal values may be shown once.
What was measured:
[1] = target: D(2) dopamine receptor (Bos taurus) (UniProt P20288); test: Inhibitor constant(Ki) for Dopamine receptor D2 calculated for low affinity(KL) component of [3H]spiperidol binding in the presence of GPP(NH)p pretreated with the compound at 100 nM
[2] = target: D(2) dopamine receptor (Bos taurus) (UniProt P20288); test: Inhibitor constant(Ki) for Dopamine receptor D2 calculated for high affinity(KH) component of [3H]spiperidol binding in the absence of GPP(NH)p pretreated with the compound at 100 nM
[3] = tested on: Rattus norvegicus; test: Maximal increase in rotations at a dose of 10 ug/kg, ip in 6-hydroxydopamine-lesioned rat model of hemi-parkinsonism.; format: functional
[4] = target: D(2) dopamine receptor (Bos taurus) (UniProt P20288); test: Percentage of Dopamine receptor D2 in the high affinity form(RH) for the agonist was determined in the presence of GPP(NH)p pretreated with the compound at 100 nM; format: functional
[5] = Ratio of RH to RL was determined in the absence of GPP(NH)p pretreated with the compound at 100 nM
[6] = Ratio of RH to RL was determined in the presence of GPP(NH)p pretreated with the compound at 100 nM
[7] = target: D(2) dopamine receptor (Bos taurus) (UniProt P20288); test: Inhibitor constant(Ki) for Dopamine receptor D2 calculated for low affinity(KL) component of [3H]spiperidol binding in the absence of GPP(NH)p pretreated with the compound at 100 nM
[8] = target: D(2) dopamine receptor (Bos taurus) (UniProt P20288); test: Inhibitor constant(Ki) for Dopamine receptor D2 calculated for high affinity(KH) component of [3H]spiperidol binding in the presence of GPP(NH)p pretreated with the compound at 100 nM
[9] = target: D(2) dopamine receptor (Bos taurus) (UniProt P20288); test: Percentage of Dopamine receptor D2 in the high affinity form(RH) for the agonist was determined in the absence of GPP(NH)p pretreated with the compound at 100 nM; format: functional
[10] = target: D(2) dopamine receptor (Bos taurus) (UniProt P20288); test: Percentage of Dopamine receptor D2 in the low affinity form(RL) for the agonist was determined in the absence of GPP(NH)p pretreated with the compound at 100 nM; format: functional
[11] = target: D(2) dopamine receptor (Bos taurus) (UniProt P20288); test: Percentage of Dopamine receptor D2 in the low affinity form(RL) for the agonist was determined in the presence of GPP(NH)p pretreated with the compound at 100 nM; format: functional
[12] = tested on: Rattus norvegicus; test: Maximal increase in rotations at a dose of 0.1 ug/kg, ip in 6-hydroxydopamine-lesioned rat model of hemi-parkinsonism.; format: functional
[13] = tested on: Rattus norvegicus; test: Maximal increase in rotations at a dose of 1 mg/kg, ip in 6-hydroxydopamine-lesioned rat model of hemi-parkinsonism.; format: functional; settings: route intraperitoneal
[14] = tested on: Rattus norvegicus; test: Maximal increase in rotations at a dose of 1 ug/kg, ip in 6-hydroxydopamine-lesioned rat model of hemi-parkinsonism.; format: functional
[15] = target: D(2) dopamine receptor (Bos taurus) (UniProt P20288); test: Inhibitor constant(Ki) for Dopamine receptor D2 calculated for […] component of [3H]-spiperidol binding in the absence of GPP(NH)p pretreated with the compound at 100 nM

D(2) dopamine receptor (Bos taurus), sequence (P20288 whole entry): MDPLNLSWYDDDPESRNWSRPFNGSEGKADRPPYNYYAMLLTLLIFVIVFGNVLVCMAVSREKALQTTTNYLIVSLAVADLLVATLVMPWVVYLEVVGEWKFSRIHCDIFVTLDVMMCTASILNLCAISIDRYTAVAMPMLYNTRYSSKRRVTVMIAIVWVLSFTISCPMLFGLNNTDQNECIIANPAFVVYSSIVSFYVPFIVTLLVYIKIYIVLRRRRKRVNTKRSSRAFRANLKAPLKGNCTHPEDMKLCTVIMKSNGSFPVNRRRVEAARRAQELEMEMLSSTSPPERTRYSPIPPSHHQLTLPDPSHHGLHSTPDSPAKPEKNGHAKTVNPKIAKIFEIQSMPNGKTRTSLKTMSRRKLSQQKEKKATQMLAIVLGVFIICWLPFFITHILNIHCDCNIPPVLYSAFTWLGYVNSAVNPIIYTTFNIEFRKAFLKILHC

| KL [1] [nM] | KH [2] | RH [4] [%] | Ratio [5] | Ratio [6] | KL [7] [nM] | KH [8] [nM] | RH [9] [%] | RL [10] [%] | RL [11] [%] | Compound | further results |
| --- | --- | --- | --- | --- | --- | --- | --- | --- | --- | --- | --- |
| 88 | 0.05 nM | 54 | 2.7 | 1.17 | 110 | 0.089 | 73 | 27 | 46 | NC(=O)[C@@H]1CCCN1C(=O)[C@@H]1CCCN1C(=O)[C@@H]1CCCN1 | Increase [3]: 47% |
| 140 | 0.086 nM | 67 | 2.45 | 2.03 | 153 | 0.054 | 71 | 29 | 33 | NC(=O)[C@H]1CCCN1C(=O)[C@@H]1CCCN1C(=O)[C@@H]1CCCN1 | – |
| – | – | – | – | – | – | – | – | – | – | CC(C)C[C@H](NC(=O)[C@@H]1CCCN1)C(=O)N1CCCC1C(N)=O (single isomer, unassigned) | Increase [12]: 30% |
| – | – | – | – | – | – | – | – | – | – | CC(C)CC(NC(=O)[C@@H]1CCCN1)C(=O)NCC(N)=O (single isomer, unassigned) | Increase [13]: 30% |
| – | – | – | – | – | – | – | – | – | – | CC(C)C[C@H](NC(=O)[C@@H]1CCCN1)C(=O)N1CCC[C@@H]1C(N)=O | Increase [14]: 26% |
| – | 0.052 nM and 52% | 54 | 1.08 | 1.17 | – | 0.087 | – | 48 | 46 | C[C@@H]1CCN(C(=O)[C@@H]2CCCN2)[C@@H]1C(=O)N1CCC[C@H]1C(N)=O | KL [15]: 98 nM; KL [8]: 106 nM |

From ChEMBL document CHEMBL1131839, “Synthesis and dopamine receptor modulating activity of unsubstituted and substituted triproline analogues of L-prolyl-L-leucyl-glycinamide (PLG)” (1999)
